Experimental data taken from patent US7998926B2, “Dimerized T-cell receptor fragment, its compositions and use” (The Arizona Boad of Regents on Behfl of the University of …, priority 2001, dated 2011).
Positions of bridges follow the written chain, without caps; N, C: chain ends. Chains are numbered I, II in the order given. No end group written: not given here.

Experiments:
[1] = Immunomodulatory effects of homologs of the β3 peptide
IFN-γ = IFN-γ production of splenocyte of LP-BM5-infected mice; format: in vivo, C57BL/6 mice; settings: 200 μg/mouse, vs infected saline group
From the text: FIG. 5. IFN-γ production of splenocyte. […] “a” indicates significant differences at P <0.05 compared with uninfected saline treatment group. “b” indicates significant differences at P<0.05 compared with infected saline treatment group.
(§1) Female C57BL/6 mice, four weeks old, were obtained from the Charles River Laboratories Inc. (Wilmington, Del.). Animals were cared for as required by the University of Arizona Committee on Animal Research. After two weeks housing in the Central Animal Facility, University of Arizona, they were randomly assigned to one of the following treatment groups: uninfected normal mice (four mice); LP-BM5-infected mice treated with saline (pyrogen free; six mice); LP-BM5-infected mice treated with 200 μg TCR Vβ3 monomer peptide (six mice); LP-BM5-infected mice treated with 200 μg TCR Vβ3 dimer peptide (six mice). […] Intraperitoneal administration of monomer and dimer peptides (dissolved in saline) was performed two and six weeks after LP-BM5 infection. Infection to of these mice with LP-BM5 retrovirus leads to the rapid induction of clinical symptoms with virtually no latent phase.

IL-2 = IL-2 production of splenocyte of LP-BM5-infected mice; format: in vivo, C57BL/6 mice; settings: 200 μg/mouse, vs infected saline group
From the text: FIG. 4. IL-2 production of splenocyte. […] “a” indicates significant differences at p<0.05 compared with uninfected saline treatment group. “b” indicates significant differences at p<0.05 compared with infected saline treatment group.
as §1

IL-6 = test: Interleukin-6 production of splenocyte of LP-BM5-infected mice; format: in vivo, C57BL/6 mice; settings: 200 μg/mouse, mitogen-stimulated splenocytes, vs infected saline group
From the text: FIG. 7. Interleukin-6 production of splenocyte. […] “a” indicates significant differences at p<0.05 compared with uninfected saline treatment group. “b” indicates significant differences at p<0.05 compared with infected saline treatment group.
as §1

splenocyte T cells = test: Con A-stimulated splenocyte proliferation (T cells) of LP-BM5-infected mice; format: in vivo, C57BL/6 mice; settings: 200 μg/mouse, vs infected saline group
From the text: FIG. 2. Con A-stimulated splenocyte proliferation. […] “a” indicates significant differences at p<0.05 compared with uninfected saline treatment group. “b” indicates significant differences at p<0.05 compared with infected saline treatment group.
as §1

aged mice = settings: injection of peptide, not highly dimerised; cited from earlier work
splenocyte B cells = test: LPS-stimulated splenocyte proliferation (B cells) of LP-BM5-infected mice; format: in vivo, C57BL/6 mice; settings: 200 μg/mouse, vs infected saline group
From the text: FIG. 3. LPS-stimulated splenocyte proliferation. […] “a” indicates significant differences at p<0.05 compared with uninfected saline treatment group. “b” indicates significant differences at […] compared with infected saline treatment group.
as §1

LP-BM5 retrovirus = test: Spleen weight in LP-BM5 retrovirus-infected mice; format: in vivo, C57BL/6 mice; settings: 200 μg peptide intraperitoneally two and six weeks after infection, relative to untreated infected animals
From the text: FIG. 1. Spleen weight. The spleen weights were substantially (p<0.05) elevated in the infected mice relative to the uninfected animals. […] “a” indicates significant differences at p<0.05 compared with uninfected saline treatment.
as §1

IL-4 = test: Interleukin-4 production of splenocyte of LP-BM5-infected mice; format: in vivo, C57BL/6 mice; settings: 200 μg/mouse, mitogen-stimulated splenocytes, vs infected saline group
From the text: FIG. 6. Interleukin-4 production of splenocyte. […] “a” indicates significant differences at P<0.05 compared with uninfected saline treatment group, “b” indicates significant differences at P<0.05 compared with infected saline treatment group.
as §1

Substance	Immunomodulatory effects compared with the β3 peptide [1]	IFN-γ production of splenocyte (IFN-γ)	IL-2 production of splenocyte (IL-2)	Interleukin-6 production of splenocyte (IL-6)	Con A-stimulated splenocyte proliferation (T-cell proliferation) (splenocyte T cells)	Immunosenescence (aged mice)	LPS-stimulated splenocyte proliferation (B cell proliferation) (splenocyte B cells)	Spleen weight (splenomegaly) (LP-BM5 retrovirus)	IFN-γ production of splenocyte (IFN-γ; listed as Vβ3 peptide dimers)	Interleukin-4 production of splenocyte (IL-4)	Interleukin-4 production of splenocyte (IL-4; listed as Vβ3 peptide dimers)	Con A-stimulated splenocyte proliferation (T-cell proliferation) (splenocyte T cells; listed as Vβ3 peptide dimers)	LPS-stimulated splenocyte proliferation (B cell proliferation) (splenocyte B cells; listed as Vβ3 peptide dimers)	Spleen weight (splenomegaly) (LP-BM5 retrovirus; listed as Vβ3 peptide dimers)
C S P K S G H D T V S W Y Q Q A (CSPKSGHDTVSWYQQA) [Pep Vβ5.2]	Active													
CKPISGHNSLFWYRQT [TCR Vβ3 monomer, 16-mer TCR Vβ CDR1 peptide of T-cell receptor β chain clone YT35, monomer form, reference compound]		significantly (p<0.05) normalized IFN-γ production	significantly (p<0.05) normalized IL-2 production	significantly (p<0.05) normalized IL-6	significantly (p<0.05) prevented the suppression of T-cell proliferation	reduces immunosenescence in aged mice	significantly (p<0.05) prevented the suppression of T-cell proliferation	significant reduction in spleen weight						
TCR Vβ3 dimer: homodimer of two SEQ ID NO:1 peptide monomers, formed through a disulphide bond at the N-terminal cysteine (chain 1 CKPISGHNSLFWYRQT; chain 2 CKPISGHNSLFWYRQT; disulfide I:1-II:1)		significantly (p<0.05) normalized IFN-γ production		at least as effective as the monomer	significantly (p<0.05) prevented the suppression of T-cell proliferation		significantly (p<0.05) prevented the suppression of T-cell proliferation	significant reduction in spleen weight	at least as effective as the monomer	significantly (p<0.05) normalized IL-4	at least as effective as the monomer	at least as effective as the monomer	at least as effective as the monomer	at least as effective as the monomer
